Assay results as given in article PMC10620772, “Design, synthesis, and biological evaluation of new pyrimidine-5-carbonitrile derivatives as novel anti-cancer, dual EGFR^WT/COX-2 inhibitors with docking studies” (RSC Advances, 2023).

Key:
Experiment in all cases: NCI60 antitumor screening
Assay type in all cases: cell-based, human
[1] = test system: SK-MEL-28
[2] = test system: HCT-116
[3] = test system: UO-31; conditions: Homo sapiens; 10 μM single dose; UO-31 (renal cancer); read-out: growth inhibition percent (GI%)
[4] = test system: SF-268
[5] = test system: NCI/ADR-RES
[6] = test system: NCI-H460
[7] = test system: HOP-62
[8] = test system: ACHN
[9] = test system: PC-3
[10] = test system: SK-MEL-2; conditions: Homo sapiens; 10 μM single dose; SK-MEL-2 (melanoma); read-out: growth inhibition percent (GI%)
[11] = test system: DU-145
[12] = test system: SK-MEL-5
[13] = test system: HCC-2998
[14] = test system: HOP-92
[15] = test system: 786–0
[16] = test system: CCRF-CEM
[17] = test system: HS 578T
[18] = test system: SNB-75; conditions: Homo sapiens; 10 μM single dose; SNB-75 (CNS cancer); read-out: growth inhibition percent (GI%)
[19] = test system: RPMI-8226

SMILES: N#Cc1c(-c2ccc(F)cc2)nc(SCc2ccccc2)nc1N1CCNCC1 [4e, 2-(Benzylthio)-4-(4-fluorophenyl)-6-(piperazin-1-yl) pyrimidine-5-carbonitrile]
- CC50 ([1]; Homo sapiens, SK-MEL-28, five-dose, read-out: LC50 (the source's name)): 56.3 µM
- inhibition at 10 µM ([1]; Homo sapiens, 10 μM single dose, SK-MEL-28 (melanoma), read-out: growth inhibition percent (GI%)): > 100%
- TGI ([1]; five-dose): 30.30 µM
- GI50 ([2]; Homo sapiens, HCT-116, five-dose): 3.51 µM
- CC50 ([2]; Homo sapiens, HCT-116, five-dose, read-out: LC50 (the source's name)): 38.1 µM
- inhibition at 10 µM ([2]; Homo sapiens, 10 μM single dose, HCT-116 (colon cancer), read-out: growth inhibition percent (GI%)): > 100%
- TGI ([2]; five-dose): 11.60 µM
- inhibition at 10 µM [3]: > 100%
- GI50 ([4]; Homo sapiens, SF-268, five-dose): 12.9 µM
- CC50 ([4]; Homo sapiens, SF-268, five-dose, read-out: LC50 (the source's name)): 65.4 µM
- inhibition at 10 µM ([4]; Homo sapiens, 10 μM single dose, SF-268 (CNS cancer), read-out: growth inhibition percent (GI%)): > 100%
- TGI ([4]; five-dose): 29.10 µM
- GI50 ([5]; Homo sapiens, NCI/ADR-RES, five-dose): 11.7 µM
- CC50 ([5]; Homo sapiens, NCI/ADR-RES, five-dose, read-out: LC50 (the source's name)): 64.4 µM
- inhibition at 10 µM ([5]; Homo sapiens, 10 μM single dose, NCI/ADR-RES (ovarian cancer), read-out: growth inhibition percent (GI%)): > 100%
- TGI ([5]; five-dose): 27.40 µM
- GI50 ([6]; Homo sapiens, NCI-H460, five-dose): 9.2 µM
- CC50 ([6]; Homo sapiens, NCI-H460, five-dose, read-out: LC50 (the source's name)): 53.9 µM
- inhibition at 10 µM ([6]; Homo sapiens, 10 μM single dose, NCI-H460 (non-small cell lung cancer), read-out: growth inhibition percent (GI%)): > 100%
- TGI ([6]; five-dose): 22.90 µM
- GI50 ([7]; Homo sapiens, HOP-62, five-dose): 13.2 µM
- CC50 ([7]; Homo sapiens, HOP-62, five-dose, read-out: LC50 (the source's name)): 59.9 µM
- inhibition at 10 µM ([7]; Homo sapiens, 10 μM single dose, HOP-62 (non-small cell lung cancer), read-out: growth inhibition percent (GI%)): > 100%
- TGI ([7]; five-dose): 28.10 µM
- GI50 ([8]; Homo sapiens, ACHN, five-dose): 14 µM
- LC50 ([8]; Homo sapiens, ACHN, five-dose): 54 µM
- inhibition at 10 µM ([8]; Homo sapiens, 10 μM single dose, ACHN (renal cancer), read-out: growth inhibition percent (GI%)): > 100%
- TGI ([8]; five-dose): 27.50 µM
- GI50 ([9]; Homo sapiens, PC-3, five-dose): 11.8 µM
- CC50 ([9]; Homo sapiens, PC-3, five-dose, read-out: LC50 (the source's name)): 56.4 µM
- inhibition at 10 µM ([9]; Homo sapiens, 10 μM single dose, PC-3 (prostate cancer), read-out: growth inhibition percent (GI%)): > 100%
- TGI ([9]; five-dose): 25.80 µM
- inhibition at 10 µM [10]: > 100%
- GI50 ([11]; Homo sapiens, DU-145, five-dose): 15 µM
- CC50 ([11]; Homo sapiens, DU-145, five-dose, read-out: LC50 (the source's name)): 56 µM
- inhibition at 10 µM ([11]; Homo sapiens, DU-145, read-out: growth inhibition percent (GI%)): > 100%
- TGI ([11]; five-dose): 29.00 µM
- GI50 ([12]; Homo sapiens, SK-MEL-5, five-dose): 15.7 µM
- CC50 ([12]; Homo sapiens, SK-MEL-5, five-dose, read-out: LC50 (the source's name)): 54.5 µM
- inhibition at 10 µM ([12]; Homo sapiens, 10 μM single dose, SK-MEL-5 (melanoma), read-out: growth inhibition percent (GI%)): > 100%
- TGI ([12]; five-dose): 29.20 µM
- GI50 ([13]; Homo sapiens, HCC 2998, five-dose): 1.76 µM
- CC50 ([13]; Homo sapiens, HCC 2998, five-dose, read-out: LC50 (the source's name)): 5.89 µM
- inhibition at 10 µM ([13]; Homo sapiens, 10 μM single dose, HCC-2998 (colon cancer), read-out: growth inhibition percent (GI%)): > 100%
- TGI ([13]; five-dose): 3.22 µM
- GI50 ([14]; Homo sapiens, HOP-92, five-dose): 4.2 µM
- CC50 ([14]; Homo sapiens, HOP-92, five-dose, read-out: LC50 (the source's name)): 48.4 µM
- inhibition at 10 µM ([14]; Homo sapiens, 10 μM single dose, HOP-92 (non-small cell lung cancer), read-out: growth inhibition percent (GI%)): > 100%
- TGI ([14]; five-dose): 18.10 µM
- GI50 ([15]; Homo sapiens, 786-0, five-dose): 11 µM
- LC50 (concentration killing 50% of tumour cells) ([15]; Homo sapiens, 786-0, five-dose): 58.9 µM
- inhibition at 10 µM ([15]; Homo sapiens, 10 μM single dose, 786–0 (renal cancer), read-out: growth inhibition percent (GI%)): > 100%
- TGI ([15]; five-dose): 25.40 µM
- GI50 ([16]; Homo sapiens, CCRF-CEM, five-dose): 13.9 µM
- CC50 ([16]; Homo sapiens, CCRF-CEM, five-dose, read-out: LC50 (the source's name)): 69 µM
- inhibition at 10 µM ([16]; Homo sapiens, 10 μM single dose, CCRF-CEM (leukaemia), read-out: growth inhibition percent (GI%)): > 100%
- TGI ([16]; five-dose): 31.00 µM
- GI50 ([17]; Homo sapiens, Hs-578T, five-dose): 14.1 µM
- CC50 ([17]; Homo sapiens, Hs-578T, five-dose, read-out: LC50 (the source's name)): 72.7 µM
- inhibition at 10 µM ([17]; Homo sapiens, 10 μM single dose, HS 578T (breast cancer), read-out: growth inhibition percent (GI%)): > 100%
- TGI ([17]; five-dose): 32.00 µM
- inhibition at 10 µM [18]: > 100%
- GI50 ([19]; Homo sapiens, RPMI-8226, five-dose): 3.99 µM
- CC50 ([19]; Homo sapiens, RPMI-8226, five-dose, read-out: LC50 (the source's name)): 65.4 µM
- inhibition at 10 µM ([19]; Homo sapiens, 10 μM single dose, RPMI-8226 (leukaemia), read-out: growth inhibition percent (GI%)): > 100%
- TGI ([19]; five-dose): 17.50 µM
